Results on four compounds are retold here after patent US4407815A, “β-Lactam antibacterial compounds, their preparation and pharmaceutical compositions containing them” (Beecham Group Limited, priority 1980, dated 1983).

What all share (assay): Minimum Inhibitory Concentration, serial dilution on DST agar
Type in all cases: cell-based

One experiment concerns Staph. aureus Russell. Conditions: lactamase-producing benzylpenicillin-resistant strain, DST agar + 10% horse blood, 0.001 ml of 10^-2 dilution (Gram-positive), 37° C., 18 h; for MIC: Staphylococcus aureus. The method, then: (§1) ^a Determined by serial dilution on DST agar containing 10% horse
(§2) blood using an inoculum of 0.001 ml of a 10^-2 dilution for
(§3) Grampositive bacteria or a 10^-4 dilution for Gramnegative organisms.
(§4) MIC values were read after incubation at 37° C. for 18 h.
^b Lactamase-producing benzylpenicillinresistant strain.

For the next experiment, the system named is E. coli. Conditions: DST agar + 10% horse blood, 0.001 ml of 10^-4 dilution (Gram-negative), 37° C., 18 h; for MIC: Escherichia coli. The method, then: as §1, §2, §3, §4
The subject of another experiment is Proteus mirabilis. Conditions: DST agar + 10% horse blood, 0.001 ml of 10^-4 dilution (Gram-negative), 37° C., 18 h. The method, then:
as §1, §2, §3, §4

In a further experiment the test system is Klebsiella aerogenes. Conditions: DST agar + 10% horse blood, 0.001 ml of 10^-4 dilution (Gram-negative), 37° C., 18 h. How it is done: as §1, §2, §3, §4
In the next experiment the test system is S. typhimurium. Conditions: DST agar + 10% horse blood, 0.001 ml of 10^-4 dilution (Gram-negative), 37° C., 18 h; for MIC: Salmonella enterica. How it is done: as §1, §2, §3, §4
The subject of another experiment is Staph. aureus Oxford. Conditions: DST agar + 10% horse blood, 0.001 ml of 10^-2 dilution (Gram-positive), 37° C., 18 h; for MIC: Staphylococcus aureus. How it is done:
as §1, §2, §3, §4

For a further experiment, the system named is Strep. faecalis. The following applies: DST agar + 10% horse blood, 0.001 ml of 10^-2 dilution (Gram-positive), 37° C., 18 h. How it is done:
as §1, §2, §3, §4

The next experiment concerns B. subtilis. The following applies: DST agar + 10% horse blood, 0.001 ml of 10^-2 dilution (Gram-positive), 37° C., 18 h; for MIC: Bacillus subtilis. How it is done: as §1, §2, §3, §4
Another experiment has as its system Strep. pneumoniae. The following applies: DST agar + 10% horse blood, 0.001 ml of 10^-2 dilution (Gram-positive), 37° C., 18 h. How it is done:
as §1, §2, §3, §4

SMILES strings stand for the structures.

Turning to `COC(=O)C1=C[C@@H]2[C@H](NC(=O)[C@H](N)c3ccccc3)C(=O)N2[C@H]1C(=O)O.Cc1ccc(N)cc1` (racemic) [(48), (2RS, 5RS, 6SR) 1-Aza-3-methoxycarbonyl-6-D-α-phenylglycylamino-bicyclo-[3.2.0]-hept-3-en-7-one-2-carboxylic acid, p-toluidine salt], the “Minimum Inhibitory Concentration” value is more than 50 µg/mL in the experiment with Staph. aureus Russell; 50 µg/mL in the experiment with E. coli; 25 µg/mL with Proteus mirabilis; 50 µg/mL in the experiment with Klebsiella aerogenes; 12.5 µg/mL in the experiment on S. typhimurium; 12.5 µg/mL in the experiment with Staph. aureus Oxford. The figures for the “Minimum Inhibitory Concentration” value in the experiment with Strep. faecalis, with B. subtilis and with Strep. pneumoniae were 12.5 µg/mL, 1.2 µg/mL and 0.5 µg/mL, respectively.
`COC(=O)C1=C[C@@H]2[C@H](NC(=O)C(C(=O)OCc3ccccc3)c3ccccc3)C(=O)N2[C@H]1C(=O)O.Cc1ccc(N)cc1` (mixture of isomers) [(54), (2RS, 5RS, 6SR) 1-Aza-6-(DL-α-benzyloxycarbonyl-phenylacetamido)-3-methoxycarbonylbicyclo [3.2.0]-hept-3-en-7-one-2-carboxylic acid, p-toluidine salt]: the “Minimum Inhibitory Concentration” value was more than 100 µg/mL with Staph. aureus Russell; more than 100 µg/mL in the experiment on E. coli; more than 100 µg/mL with Proteus mirabilis; 100 µg/mL in the experiment with Klebsiella aerogenes; 100 µg/mL in the experiment on S. typhimurium; more than 100 µg/mL in the experiment on Staph. aureus Oxford. Besides, the “Minimum Inhibitory Concentration” value with Strep. faecalis was more than 100 µg/mL; in the experiment with B. subtilis it was 25 µg/mL; with Strep. pneumoniae it was 10 µg/mL.
The MIC is the least concentration at which growth counts as inhibited. For `COC(=O)C1=C[C@@H]2[C@H](NC(=O)COc3ccccc3)C(=O)N2[C@H]1C(=O)O` (relative stereo) [(39), (2RS, 5RS, 6SR) Sodium 1-aza-3-methoxycarbonyl-6-phenoxyacetamido-bicyclo-[3.2.0]-hept-3-en-7-one-2-carboxylate], the MIC in the experiment on Staph. aureus Russell is more than 100 µg/mL; with E. coli, more than 100 µg/mL; with Proteus mirabilis, more than 100 µg/mL; in the experiment with Klebsiella aerogenes, more than 100 µg/mL; in the experiment with S. typhimurium, more than 100 µg/mL; in the experiment on Staph. aureus Oxford, 2.5 µg/mL. Moreover, the MIC with B. subtilis worked out at 1 µg/mL.
For the compound `N#CC1=C[C@@H]2[C@H](NC(=O)COc3ccccc3)C(=O)N2[C@H]1C(=O)O` (relative stereo) [(57)], the MIC in the experiment with Staph. aureus Russell is 50 µg/mL; with E. coli it was more than 50 µg/mL; in the experiment on Proteus mirabilis, more than 50 µg/mL; with Klebsiella aerogenes, more than 50 µg/mL; with S. typhimurium, more than 50 µg/mL; in the experiment with Staph. aureus Oxford it was 5 µg/mL. Also, the MIC in the experiment with Strep. faecalis (Enterococcus faecalis) was more than 50 µg/mL; in the experiment on B. subtilis, 2.5 µg/mL; in the experiment with Strep. pneumoniae (Streptococcus pneumoniae), 1.2 µg/mL.
